The test system of data set [1] is ubiquitin isopeptidases. Put plainly: In vivo isopeptidase activity after treatment of RKO cells, Ub-PEST. The class given is cell-based, human. The conditions noted are these: 6 h. The method, then:
(§1) Isopeptidase Assay. It was hypothesized that the punaglandins would inhibit ubiquitin-isopeptidase activity of the proteasome pathway as does the prostaglandin, Δ^12-PGJ2 (1), but with greater potency because of the chlorinated C-10. To validate this theory, cellular isopeptidase enzymatic activity was measured in vitro after treatment with individual punaglandins, PNG 2 (6), PNG 3 (7), and Z-PNG 4 (9) and in vivo after individual treatment with PNG 4 (8) and PNG 6 (10). This activity was determined utilizing the simple isopeptidase substrate, ubiquitin-PEST (Ub-PEST), a full/length ubiquitin (Ub) molecule fused with an 18-amino acid C-terminal peptide extension that most isopeptidases use as a substrate. The polypeptide extension contains regions rich in Pro (P), Glu (E), Ser (S), and Thr (T) residues called PEST motifs that are responsible for rapid degradation of these and other unstable proteins. Ub isopeptidases specifically cleave this peptide extension, yielding free, full-length Ub. Both the fused Ub-PEST (10.5 kDa) and the cleaved, free Ub (8.5 kDa) can be observed via immunochemical detection.
In vivo Isopeptidase Activity. To investigate whether punaglandins can inhibit isopeptidase activity in vivo, isopeptidase activity was analyzed after punaglandin treatment of RKO cells. PNG 4 (8) and PNG 6 (10) were selected for in vivo investigation because they differ only in enone functionality, where (8) is a dienone and (10) an enone. RKO cells were incubated with 1 μM, 4 μM, or 7 μM of PNG 4 (8) and PNG 6 (10). […] As a positive control, cells were treated with a known isopeptidase inhibitor, shikoccin (SK). After 6 h drug treatment, cells were lysed and protein concentration adjusted to 0.3 mg/mL per sample. Each sample was subsequently incubated with 50 μg/mL of Ub-PEST. The reaction was terminated after 20 min and the respective amounts of Ub-PEST (10 kDa) and free Ub product (8.5 kDa) were determined by SDS-PAGE fractionation.

Data set [2] deals with HCT 116 −/− cells. Description: MTT cell viability assay, HCT 116 p53 −/− cells. The conditions noted are these: read-out: Cytotoxic Potency (EC50) HCT −/−; 48 h, MTT. For orientation: Formazan colour is commonly taken as a measure of viable cells.
Protocol: (§2) Cell viability was measured with MTT reagent as described in materials and methods.
(§3) Cell viability was detected by the MTT assay. Briefly, 1×10^5 cells were incubated per well of a sterile, 96-well assay plate with 0-60 μM of test compounds for 48 hours. MTT reagent was added to each well, final concentration of 0.5 mg/mL, and incubated for an additional 3 hours. The media was aspirated and remaining MTT reagent from each well and added 100 μL of HCl:isopropanol (1:24). The absorbance of each sample was measured at 405 nm.
The test system of data set [3] is RKO cells.
In data set [4] the test system is cell lines with Wild type p53. The conditions noted are these: cited from earlier work.
The conditions of data set [5]: cited from earlier work.
The test system of data set [6] is ubiquitin isopeptidases. Description: Reversibility of isopeptidase inhibition in cell lysates, z-LRGG-AMC, dialysis. The class given is biochemical. The conditions noted are these: 100 μM. The method, then:
FIG. 5 Reversibility of isopeptidase inhibition by Δ12-PGJ2. Cell lysates (0.5 mg/mL) were treated with DMSO vehicle or 100 μM .12-PGJ2 for 1 hour,25° C. The treated lysates were divided into two aliquots. One aliquot was immediately analyzed for isopeptidase activity by incubating with z-LRGG-AMC as previously described (Pre-Dialysis). The second aliquot was dialyzed by washing with 3 volumes of assay buffer on a centricon YM-30 column, followed by analysis for isopeptidase activity by incubating with z-LRGG-AMC (Post-Dialysis).
Δ-12-PGJ2 irreversibility was determined. Cell lysates were incubated with vehicle or 100 μM test compound and isopeptidase activity was measured fluorimetrically. 500 μl portion of each sample were dialyzed through a Centricon filter with a molecular weight cut-off of […]. After washing with 3 volumes of assay buffer, isopeptidase activity was measured in the […].

Data set [7] deals with HCT 116 +/+ cells.
Protocol: as §2, §3
The subject of data set [8] is ubiquitin isopeptidases. Description: In vitro isopeptidase activity in HCT 116 lysates, Ub-PEST. The class given is biochemical, human. The settings on record: HCT 116 lysates, 45 min. The method, then: as §1
In Vitro Isopeptidase Activity. PNG 2 (6), PNG 3 (7), and Z-PNG 4 (9) were initially analyzed for isopeptidase activity in vitro in HCT 116 lysates. Cells were lysed with isopeptidase activity buffer and protein concentration adjusted to 0.3 mg/mL per sample. Each sample was subsequently incubated with 2 μM, 6 μM, 20 μM, 60 μM, or 200 μM of PNG 2 (6), PNG 3 (7), Z-PNG 4 (9), Δ^12-PGJ2 (1), and PGA1 (2) in addition to 50 μg/ml of Ub-PEST. Negative control cells were treated with vehicle (0.5% DMSO) and equivalent Ub-PEST. […] The amount of fused Ub-PEST and free Ub product was determined by SDS-PAGE fractionation.

Data set [9] concerns ubiquitin isopeptidases. The conditions noted are these: cells treated for 12 h; cited from earlier work.
In data set [10] the test system is HCT 116 −/− cells.
Protocol: as §2, §3
The subject of data set [11] is HCT 116 +/+ cells. The settings on record: Mullally et al., University of Utah, 2003; read-out: EC50 in competent HCT 116 cells; cited from earlier work.
The conditions of data set [12]: in vivo; cited from earlier work.

Results on two compounds are retold here after patent publication US20060106099A1, “Novel inhibitors of ubiquitin isopeptidases” (priority 2002, published 2006).

Where two headings read alike, the source gives them in different places. A value given as a limit tells only on which side of the number the result lay.

As for `C=C1C(=O)C2=CC1CCC(=O)C1(C)CCC(OC(C)=O)C(C)(C)C1CC2O` (stereo not drawn) [NSC-302979, shikoccin], the “effect on Ub-PEST degradation, control substances” value in data set [1] is “expected inhibition of Ub-PEST degradation”. The EC50 in data set [2] amounted to 3.2 ± 0.2 µM; in [3] it was 1.8 ± 0.1 µM. Further, the “p53 dependence in NCI 60 cell line cancer screening data” value in data set [4] (analysis according to O'Connor et al., 1997) is given as “act independently of p53”. The LC50 in [4] (mean of 18 cell lines with wild type p53) was 54 µM.
Consider `CCCCC[C@H](O)C/C=C1/C(=O)C=C[C@@H]1C/C=C\CCCC(=O)O` [Δ12-PGJ2, Δ12-prostaglandin J2], for which the “t1/2 of metabolism to an inactive compound in serum” value in data set [5] is on record as below 5 min. For the same compound, the “isopeptidase inhibition in treated cell lysates, pre-dialysis” value in data set [6] (1 hour, 25° C.) is listed as “inhibited isopeptidase activity in treated cell lysates”. Also, the “reversibility of isopeptidase inhibition, post-dialysis” value in [6] (dialysis with 3 volumes of assay buffer) was “could not be reversed by dialysis”. Moreover, the EC50 in [7] is 3.6 ± 0.3 µM; in [10], 4.1 ± 0.1 µM; in data set [11] it was 3.6 µM. For the same compound, the “concentration at which inhibition of Ub-PEST degradation is initially observed” value in data set [8] was determined as 60 µM. Further, the “concentration of complete (total) inhibition of Ub-PEST degradation” value in data set [8] was 200 µM. The “concentration showing inhibition of Ub-PEST degradation, previous in vivo studies” value in data set [9] was 60 µM. Moreover, the “cross-resistance with cisplatin and adriamycin” value in [12] is “little cross-resistance with cisplatin and adriamycin”.

A word on the LC50: it is the concentration lethal to half of the exposed cells or organisms.
